Laboratory results reported in patent US20050288187A1, “Inhibitor development for 4-hydroxyphenylpyruvate dioxygenase, employing tyrosinemia 1 as a model for human diseases mediated by 2-oxoacid utilizing dioxygenases” (priority 2002, published 2005).

How the values were obtained:
[1] = test system: laminin P1 antigen; experiment: Control biomarker P1 antigen of laminin (P4-H independent) during NTBC treatment; assay type: in vivo, human; settings: P4-H independent protein
Text: Inherit Metab. […] Res. 39:[…]

[2] = test system: P4-H; experiment: Collagen-derived serum biomarkers (PIIINP, NC1, NTD) for P4-H activity in a tyrosinemia I patient during NTBC treatment; assay type: in vivo, human
Procedure: A total of ten biomarkers were monitored from just before initiation of NTBC medication to up to 103 days of treatment, generating a total of 60 data points. […] P4-H activity was assessed via specific antigens released from three different groups of collagens, all of which are substrates for this enzyme. These biomarkers, quantified by specific radioimmunoassay, consisted of PIIINP, an indicator for the fibril-forming collagen type III; NC1, a marker for the sheet-forming collagen type IV; and NTD, an indicator for the beaded filament-forming collagen type VI. The P1 antigen, derived from the non-collagenous protein laminin and thus not dependent on P4-H activity, served as control.

[3] = test system: P4-H; settings: one other tyrosinemic child (Pitkanen et al. 1999); cited from earlier work
[4] = test system: prolyl 4-hydroxylase; settings: U.S. Pat. Nos. 5,789,426; 5,965,585; 5,965,586; cited from earlier work

In the case of `O=C1CCCC(=O)C1C(=O)c1ccc(C(F)(F)F)cc1[N+](=O)[O-]` [NTBC, 2-(2-nitro-4-trifluoromethylbenzoyl)-cyclohexane-1,3-dione], the “laminin P1 antigen, response to NTBC treatment” value [1] is reported as “unresponsive”, the “NCI (collagen type IV biomarker) rise over initial value” ([2]; after 103 days on NTBC) is reported as 1.1 factor and the “NTC (collagen type VI biomarker) rise over initial value” ([2]; after 103 days on NTBC) is reported as 1.1 factor. The “biomarkers for P4-H activity (PIIINP, NC1, NTD), response to NTBC” value ([2]; three months study period) was “entirely unresponsive” and the “initially elevated PIIINP level, response to treatment with NTBC” value [3] was “non-responsive”.

For `Cc1c(O)c(=O)ccn1C` [DMHP, 1,2-dimethyl-3-hydroxypyrid-4-one], the “inhibition of prolyl 4-hydroxylase” value [4] is listed as “known inhibitors of prolyl 4-hydroxylase”.
